Assay results: PubChem BioAssay (NCI)
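GI50 is the concentration that inhibits growth by half. TGI: total growth inhibition.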

Tests used:
Experiment in all cases: NCI-60 cell line screen, 384-well format
[1] = system: MDA-MB-231 breast
[2] = system: CAKI-1 renal
[3] = system: SNB-19 CNS
[4] = system: HOP-92 NSCLC
[5] = system: OVCAR-8 ovarian
[6] = system: MOLT-4 leukemia
[7] = system: HCT-116 colon
[8] = system: NCI-H460 NSCLC
[9] = system: CCRF-CEM leukemia
[10] = system: OVCAR-3 ovarian
[11] = system: IGROV1 ovarian
[12] = system: MALME-3M melanoma
[13] = system: A498 renal
[14] = system: COLO 205 colon
[15] = system: SF-295 CNS
[16] = system: HOP-62 NSCLC
[17] = system: SR leukemia
[18] = system: HL-60(TB) leukemia
[19] = system: U251 glioblastoma
[20] = system: DU-145 prostate
[21] = system: HCC-2998 colon
[22] = system: NCI-H322M lung
[23] = system: SK-MEL-5 melanoma
[24] = system: UACC-62 melanoma
[25] = system: RPMI-8226 leukemia
[26] = system: RXF 393 renal
[27] = system: HCT-15 colon
[28] = system: SF-539 CNS
[29] = system: NCI/ADR-RES ovarian
[30] = system: SNB-75 CNS
[31] = system: TK-10 renal
[32] = system: NCI-H23 lung
[33] = system: PC-3 prostate
[34] = system: M14 melanoma
[35] = system: NCI-H226 lung
[36] = system: SW-620 colon
[37] = system: SK-OV-3 ovarian
[38] = system: BT-549 breast
[39] = system: HS 578T breast
[40] = system: MDA-MB-468 breast
[41] = system: 786-0 renal
[42] = system: EKVX NSCLC
[43] = system: LOX IMVI melanoma
[44] = system: A549 NSCLC
[45] = system: MCF7 breast
[46] = system: T-47D breast
[47] = system: UACC-257 melanoma
[48] = system: OVCAR-5 ovarian
[49] = system: UO-31 renal
[50] = system: OVCAR-4 ovarian
[51] = system: ACHN renal
[52] = system: MDA-MB-435 melanoma
[53] = system: NCI-H522 lung
[54] = system: KM12 colon
[55] = system: SN12C renal
[56] = system: SF-268 CNS
[57] = system: SK-MEL-28 melanoma
[58] = system: HT29 colon
[59] = system: K-562 leukemia

COc1cc2ncnc(Nc3ccc(F)c(Cl)c3)c2cc1NC(=O)/C=C/CN1CCCCC1
GI50 [1]: 1230 nM | TGI [1]: 2.49 µM | GI50 [2]: 618 nM | TGI [2]: 2140 nM | GI50 [3]: 2090 nM | TGI [3]: 6.56 µM | GI50 [4]: 1160 nM | TGI [4]: 2400 nM | GI50 [5]: 3430 nM | TGI [5]: 4.92 µM | GI50 [6]: 803 nM | TGI [6]: 2190 nM | GI50 [7]: 1570 nM | TGI [7]: 2.98 µM | GI50 [8]: 1720 nM | TGI [8]: 3.41 µM | GI50 [9]: 1920 nM | TGI [9]: 3370 nM | GI50 [10]: 586 nM | TGI [10]: 2040 nM | GI50 [11]: < 27.3 nM | TGI [11]: 1560 nM | GI50 [12]: 1520 nM | TGI [12]: 2860 nM | GI50 [13]: 471 nM | TGI [13]: 2190 nM | GI50 [14]: 4040 nM | TGI [14]: 5.48 µM | GI50 [15]: 4.83 µM | TGI [15]: 7.34 µM | GI50 [16]: 4210 nM | TGI [16]: 5.84 µM | GI50 [17]: 883 nM | TGI [17]: 2210 nM | GI50 [18]: 973 nM | TGI [18]: 2340 nM | GI50 [19]: 4090 nM | TGI [19]: 5.53 µM | GI50 [20]: 395 nM | TGI [20]: 2.14 µM | GI50 [21]: 5.29 µM | GI50 [22]: < 22.1 nM | TGI [22]: 150 nM | GI50 [23]: 1600 nM | TGI [23]: 3.67 µM | GI50 [24]: 1590 nM | TGI [24]: 2960 nM | GI50 [25]: 1510 nM | TGI [25]: 2850 nM | GI50 [26]: 1010 nM | TGI [26]: 3050 nM | GI50 [27]: 1180 nM | TGI [27]: 4.17 µM | GI50 [28]: 1650 nM | TGI [28]: 3030 nM | GI50 [29]: 1140 nM | TGI [29]: 2370 nM | GI50 [30]: 775 nM | TGI [30]: 3010 nM | GI50 [31]: < 19.2 nM | TGI [31]: 3.92 µM | GI50 [32]: 3170 nM | TGI [32]: 5.33 µM | GI50 [33]: 1670 nM | TGI [33]: 3.18 µM | GI50 [34]: 1740 nM | TGI [34]: 3.14 µM | GI50 [35]: 3530 nM | TGI [35]: 5 µM | GI50 [36]: 1620 nM | TGI [36]: 3.02 µM | GI50 [37]: 619 nM | TGI [37]: 5.93 µM | GI50 [38]: 1010 nM | TGI [38]: 2430 nM | GI50 [39]: 951 nM | TGI [39]: 2810 nM | GI50 [40]: < 10 nM | TGI [40]: < 19.9 nM | GI50 [41]: 784 nM | TGI [41]: 2290 nM | TGI [42]: 3810 nM | GI50 [43]: 2540 nM | TGI [43]: 5.01 µM | GI50 [44]: 3310 nM | TGI [44]: 4.86 µM | GI50 [45]: 3170 nM | TGI [45]: 4.96 µM | TGI [46]: 3920 nM | GI50 [47]: 1630 nM | TGI [47]: 3080 nM | GI50 [48]: 1660 nM | TGI [48]: 5.04 µM | GI50 [49]: 639 nM | TGI [49]: 2.2 µM | GI50 [50]: 1180 nM | TGI [50]: 2.47 µM | TGI [51]: 1870 nM | GI50 [52]: 1780 nM | TGI [52]: 3.26 µM | GI50 [53]: < 45.2 nM | TGI [53]: 946 nM | GI50 [54]: 2050 nM | TGI [54]: 4.37 µM | GI50 [55]: 595 nM | TGI [55]: 2240 nM | GI50 [56]: 1680 nM | TGI [56]: 4330 nM | GI50 [57]: 1620 nM | TGI [57]: 2.98 µM

C=CC(=O)Nc1cc2c(Nc3ccc(F)c(Cl)c3)ncnc2cc1OCCCN1CCOCC1
GI50 [1]: 1530 nM | TGI [1]: 3.77 µM | GI50 [2]: 462 nM | TGI [2]: 1990 nM | GI50 [3]: 1850 nM | TGI [3]: 4.14 µM | GI50 [4]: 1400 nM | TGI [4]: 2930 nM | GI50 [5]: 1440 nM | TGI [5]: 2.79 µM | GI50 [6]: 933 nM | TGI [6]: 2150 nM | GI50 [7]: 1760 nM | TGI [7]: 3.26 µM | GI50 [8]: 1510 nM | TGI [8]: 2.9 µM | GI50 [9]: 1200 nM | TGI [9]: 2460 nM | GI50 [10]: 1030 nM | TGI [10]: 2220 nM | GI50 [11]: < 10 nM | TGI [11]: 838 nM | GI50 [12]: 1720 nM | TGI [12]: 3130 nM | GI50 [13]: 424 nM | TGI [13]: 1910 nM | GI50 [14]: 1600 nM | TGI [14]: 3.11 µM | GI50 [15]: 4.62 µM | TGI [15]: 15.8 µM | GI50 [16]: 1640 nM | TGI [16]: 3.7 µM | GI50 [18]: 1220 nM | TGI [18]: 2500 nM | GI50 [19]: 1910 nM | TGI [19]: 3.79 µM | GI50 [20]: 1070 nM | TGI [20]: 4.19 µM | GI50 [21]: 1.32 µM | TGI [21]: 2630 nM | GI50 [22]: < 10 nM | TGI [22]: 1290 nM | GI50 [23]: 1410 nM | TGI [23]: 2.75 µM | GI50 [24]: 1450 nM | TGI [24]: 2780 nM | GI50 [25]: 1220 nM | TGI [25]: 2490 nM | GI50 [26]: 620 nM | TGI [26]: 2000 nM | GI50 [27]: 1190 nM | TGI [27]: 2.47 µM | GI50 [28]: 1370 nM | TGI [28]: 2680 nM | GI50 [29]: 1450 nM | TGI [29]: 2870 nM | GI50 [30]: 1120 nM | TGI [30]: 2910 nM | GI50 [31]: 36.8 nM | TGI [31]: 2.09 µM | GI50 [32]: 1470 nM | TGI [32]: 2.8 µM | GI50 [33]: 1690 nM | TGI [33]: 3.11 µM | GI50 [34]: 1580 nM | TGI [34]: 2.95 µM | GI50 [35]: 1960 nM | TGI [35]: 4.7 µM | GI50 [36]: 1690 nM | TGI [36]: 3.08 µM | GI50 [37]: 1060 nM | TGI [37]: 2.67 µM | GI50 [38]: 1060 nM | TGI [38]: 2270 nM | GI50 [39]: 1220 nM | TGI [39]: 2490 nM | GI50 [40]: < 10 nM | GI50 [41]: 1160 nM | TGI [41]: 2490 nM | GI50 [42]: 50.7 nM | TGI [42]: 1930 nM | GI50 [43]: 1510 nM | TGI [43]: 2.87 µM | GI50 [44]: 1320 nM | TGI [44]: 2.71 µM | GI50 [45]: 1140 nM | TGI [45]: 2.52 µM | GI50 [46]: 54.7 nM | TGI [46]: 1440 nM | GI50 [47]: 1310 nM | TGI [47]: 2620 nM | GI50 [48]: 1740 nM | TGI [48]: 13.6 µM | GI50 [58]: 1550 nM | TGI [58]: 3 µM | GI50 [49]: 1170 nM | TGI [49]: 4.22 µM | GI50 [50]: 2020 nM | TGI [50]: 6 µM | GI50 [51]: 13.1 nM | TGI [51]: 1660 nM | GI50 [59]: 1210 nM | TGI [59]: 2490 nM | GI50 [52]: 2420 nM | TGI [52]: 5.09 µM | GI50 [53]: 65.3 nM | TGI [53]: 454 nM | GI50 [54]: 1580 nM | TGI [54]: 3.02 µM | GI50 [55]: 267 nM | TGI [55]: 1910 nM | GI50 [56]: 209 nM | TGI [56]: 1650 nM | GI50 [57]: 2030 nM | TGI [57]: 3.52 µM
